# Reference: patent US20260184710A1, “CASITAS B-LINEAGE LYMPHOMA PROTOONCOGENE B (CBL-B) DEGRADING COMPOUNDS AND ASSOCIATED METHODS OF USE” (Arvinas Operations, Inc., priority 2022, published 2026)
# How the values were obtained:
# Cbl-b [1] = target: T1, Cbl-b (Homo sapiens, UniProt Q13191); assay: Cbl-b Degradation Method B (Nano-Glo HiBiT lytic detection); format: cell-based; details: Cbl-b-HiBit KI Jurkat Cells, incubated at least 6-24 hours; for DC50: half maximal degradation, read-out: Cbl-b Degredation Method B IC50; for Dmax / Cbl-b Degredation Method B Dmax (%): maximum degradation observed; for Dmax: read-out: Cbl-b Degredation Method B Dmax (%)
# T1 construct: Cbl-b-HiBit KI Jurkat Cells were purchased from Promega; host or cells: Cbl-b-HiBiT knock-in Jurkat cells
# How it was run: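 An 11-point, 3-fold compound dilution was applied for 6-24 hours to Jurkat cells carrying HiBiT-tagged endogenous Cbl-b. Lytic HiBiT luminescence quantified residual protein. Outputs are DC50 and Dmax relative to DMSO control.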
# Cbl-b [2] = target: T1, Cbl-b; assay: Cbl-b Degradation Method A (FACS, anti-Cbl-b antibody staining); format: cell-based; details: Cbl-b-HiBit KI Jurkat Cells, incubated at least 20 hours; for DC50: half maximal degradation, read-out: Cbl-b Degredation Method A IC50; for Dmax: Jurkat, maximum degradation observed, read-out: Cbl-b Degredation Method A Dmax (%)
# How it was run: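 Readout is flow cytometry of fixed, permeabilized cells immunostained for Cbl-b (primary 1:200, AF488 secondary). Cells were Cbl-b-HiBit knock-in Jurkat, exposed to compound ≥20 h at 37 °C; half-maximal degradation concentration (DC50) and maximal degradation (Dmax) calculated relative to control.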
# T1 sequence (Q13191 whole entry): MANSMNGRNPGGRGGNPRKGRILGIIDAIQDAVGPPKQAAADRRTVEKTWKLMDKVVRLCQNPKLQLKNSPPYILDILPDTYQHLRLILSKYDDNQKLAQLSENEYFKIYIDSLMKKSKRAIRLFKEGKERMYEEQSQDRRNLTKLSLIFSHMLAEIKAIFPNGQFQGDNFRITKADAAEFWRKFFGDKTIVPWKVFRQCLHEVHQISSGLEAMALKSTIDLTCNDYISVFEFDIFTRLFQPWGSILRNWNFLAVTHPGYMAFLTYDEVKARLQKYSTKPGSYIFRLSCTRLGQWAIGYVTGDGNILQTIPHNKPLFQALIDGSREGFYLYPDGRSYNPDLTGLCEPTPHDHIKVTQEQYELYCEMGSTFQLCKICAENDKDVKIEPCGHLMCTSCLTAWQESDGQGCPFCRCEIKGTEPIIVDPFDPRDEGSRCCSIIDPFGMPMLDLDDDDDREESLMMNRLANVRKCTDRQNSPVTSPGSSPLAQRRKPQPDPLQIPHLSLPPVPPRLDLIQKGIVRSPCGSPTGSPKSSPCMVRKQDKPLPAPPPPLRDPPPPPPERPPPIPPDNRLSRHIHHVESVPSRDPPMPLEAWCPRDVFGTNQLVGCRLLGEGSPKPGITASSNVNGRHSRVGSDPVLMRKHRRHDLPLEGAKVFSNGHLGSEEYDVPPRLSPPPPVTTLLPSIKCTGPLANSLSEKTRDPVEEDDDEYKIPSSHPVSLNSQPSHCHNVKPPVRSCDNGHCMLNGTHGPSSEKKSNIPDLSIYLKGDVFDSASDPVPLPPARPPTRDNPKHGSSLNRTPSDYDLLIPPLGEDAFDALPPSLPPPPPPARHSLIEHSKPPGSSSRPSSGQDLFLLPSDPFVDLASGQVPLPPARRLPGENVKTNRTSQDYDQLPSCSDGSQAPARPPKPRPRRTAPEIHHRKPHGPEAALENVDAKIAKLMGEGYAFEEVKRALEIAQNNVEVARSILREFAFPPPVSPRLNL
SMILES,DC50 (Cbl-b [1]) [nM],Dmax (Cbl-b [1]) [%],DC50 (Cbl-b [2]) [nM],Dmax (Cbl-b [2]) [%],Cbl-b Degredation Method B Dmax (%) (Cbl-b [1])
"Cn1cnnc1CC1(c2cccc(N3Cc4c(cc(CN5CCC[C@H](CN6CCC(C7CCN(c8ccc9c(c8)C(=O)N(C8CCC(=O)NC8=O)C9=O)CC7)CC6)C5)cc4C(F)(F)F)C3=O)c2)COC1 (stereo partly drawn) [Example 96, 2-(2,6-dioxopiperidin-3-yl)-5-(1′-{[(3R)-1-{[2-(3-{3-[(4-methyl-4H-1,2,4-triazol-3-yl)methyl]oxetan-3-yl}phenyl)-3-oxo-7-(trifluoromethyl)-2,3-dihydro-1H-isoindol-5-yl]methyl}piperidin-3-yl]methyl}-[4,4′-bipiperidin]-1-yl)-2,3-dihydro-1H-isoindole-1,3-dione]",> 500,,> 500,,
"Cn1cnnc1CC1(c2cccc(N3Cc4c(cc(CN5CCC[C@H](CN6CCC(CN7CCN(c8ccc9c(c8)C(=O)N(C8CCC(=O)NC8=O)C9=O)CC7)CC6)C5)cc4C(F)(F)F)C3=O)c2)COC1 (stereo partly drawn) [Example 101, 2-(2,6-dioxopiperidin-3-yl)-5-{4-[(1-{[(3R)-1-{[2-(3-{3-[(4-methyl-4H-1,2,4-triazol-3-yl)methyl]oxetan-3-yl}phenyl)-3-oxo-7-(trifluoromethyl)-2,3-dihydro-1H-isoindol-5-yl]methyl}piperidin-3-yl]methyl}piperidin-4-yl)methyl]piperazin-1-yl}-2,3-dihydro-1H-isoindole-1,3-dione]",> 500,,> 500,,
"Cn1cnnc1CC1(c2cccc(N3Cc4c(cc(N5CC6(CCN(c7cc8c(cc7F)C(=O)N(C7CCC(=O)NC7=O)C8=O)CC6)C5)cc4C(F)(F)F)C3=O)c2)COC1 (stereo not drawn) [Example 116, 2-(2,6-dioxopiperidin-3-yl)-5-fluoro-6-{2-[2-(3-{3-[(4-methyl-4H-1,2,4-triazol-3-yl)methyl]oxetan-3-yl}phenyl)-3-oxo-7-(trifluoromethyl)-2,3-dihydro-1H-isoindol-5-yl]-2,7-diazaspiro[3.5]nonan-7-yl}-2,3-dihydro-1H-isoindole-1,3-dione]",> 500,,> 500,,
"COc1c(N2CCC(F)(CN3CCC4(CC3)CN(c3cc5c(c(C(F)(F)F)c3)CN(c3cccc(C6(Cc7nncn7C)COC6)c3)C5=O)C4)CC2)ccc2c1CN(C1CCC(=O)NC1=O)C2=O (stereo not drawn) [Example 185, 3-{5-[4-fluoro-4-({2-[2-(3-{3-[(4-methyl-4H-1,2,4-triazol-3-yl)methyl]oxetan-3-yl}phenyl)-3-oxo-7-(trifluoromethyl)-2,3-dihydro-1H-isoindol-5-yl]-2,7-diazaspiro[3.5]nonan-7-yl}methyl)piperidin-1-yl]-4-methoxy-1-oxo-2,3-dihydro-1H-isoindol-2-yl}piperidine-2,6-dione]",5 to 50,35 to 70,5 to 50,35 to 70,
"CC(C)n1c(=O)n(C2CCC(=O)NC2=O)c2cccc(N3CCC(O[C@H]4CC[C@H](CN5CCN(Cc6cc7c(c(C(F)(F)F)c6)CN(c6cccc([C@]8(Cc9nncn9C)C[C@@H](C#N)C8)c6)C7=O)C(C)(C)C5)CC4)CC3)c21 (stereo partly drawn) [Example 302, (1r,3r)-3-(3-{6-[(2,2-dimethyl-4-{[(1r,4r)-4-({1-[1-(2,6-dioxopiperidin-3-yl)-2-oxo-3-(propan-2-yl)-2,3-dihydro-1H-1,3-benzodiazol-4-yl]piperidin-4-yl}oxy)cyclohexyl]methyl}piperazin-1-yl)methyl]-1-oxo-4-(trifluoromethyl)-2,3-dihydro-1H-isoindol-2-yl}phenyl)-3-[(4-methyl-4H-1,2,4-triazol-3-yl)methyl]cyclobutane-1-carbonitrile]",5 to 50,,50 to 500,35 to 70,C (C ≤ 35)
"Cc1cc(N2CCC(O[C@H]3CC[C@H](CN4CCN(Cc5cc6c(c(C(F)(F)F)c5)CN(c5cccc([C@]7(Cc8nncn8C)C[C@H](C#N)C7)c5)C6=O)[C@@H](C)C4)CC3)CC2)c(F)c2c1C(=O)N(C1CCC(=O)NC1=O)C2 (stereo partly drawn) [Example 220, (1r,3r)-3-[3-(6-{[(2S)-2-methyl-4-{[(1r,4r)-4-({1-[2-(2,6-dioxopiperidin-3-yl)-4-fluoro-7-methyl-1-oxo-2,3-dihydro-1H-isoindol-5-yl]piperidin-4-yl}oxy)cyclohexyl]methyl}piperazin-1-yl]methyl}-1-oxo-4-(trifluoromethyl)-2,3-dihydro-1H-isoindol-2-yl)phenyl]-3-[(4-methyl-4H-1,2,4-triazol-3-yl)methyl]cyclobutane-1-carbonitrile]",< 5,> 70,5 to 50,> 70,
"CC1c2nc(N3CCC(O[C@H]4CC[C@H](CN5CCC6(CC5)CN(c5cc7c(c(C(F)(F)F)c5)CN(c5cccc([C@]8(Cc9nncn9C)C[C@@H](C#N)C8)c5)C7=O)C6)CC4)CC3)ccc2C(=O)N1C1CCC(=O)NC1=O (stereo partly drawn) [Example 175, (1r,3r)-3-[(4-methyl-4H-1,2,4-triazol-3-yl)methyl]-3-{3-[1-oxo-6-(7-{[(1r,4r)-4-({1-[6-(2,6-dioxopiperidin-3-yl)-7-methyl-5-oxo-5H,6H,7H-pyrrolo[3,4-b]pyridin-2-yl]piperidin-4-yl}oxy)cyclohexyl]methyl}-2,7-diazaspiro[3.5]nonan-2-yl)-4-(trifluoromethyl)-2,3-dihydro-1H-isoindol-2-yl]phenyl}cyclobutane-1-carbonitrile]",< 5,35 to 70,5 to 50,> 70,
"CC(C)n1c(=O)n(C2CCC(=O)NC2=O)c2cccc(N3CCC(CN4CCC5(CC4)CN(c4cc6c(c(C(F)(F)F)c4)CN(c4cccc([C@]7(Cc8nncn8C)C[C@@H](C#N)C7)c4)C6=O)C5)CC3)c21 (stereo partly drawn) [Example 284, (1r,3r)-3-(3-{6-[7-({1-[1-(2,6-dioxopiperidin-3-yl)-2-oxo-3-(propan-2-yl)-2,3-dihydro-1H-1,3-benzodiazol-4-yl]piperidin-4-yl}methyl)-2,7-diazaspiro[3.5]nonan-2-yl]-1-oxo-4-(trifluoromethyl)-2,3-dihydro-1H-isoindol-2-yl}phenyl)-3-[(4-methyl-4H-1,2,4-triazol-3-yl)methyl]cyclobutane-1-carbonitrile]",< 5,,50 to 500,35 to 70,C (C ≤ 35)

# Other lines, results leading:
DC50 (Cbl-b [1]) [nM],Dmax (Cbl-b [1]) [%],DC50 (Cbl-b [2]) [nM],Dmax (Cbl-b [2]) [%],Cbl-b Degredation Method B Dmax (%) (Cbl-b [1]),SMILES
< 5,< 35,5 to 50,35 to 70,,"C[C@H]1C[C@@H](CN2CCC(CC3CCN(c4ccc5c(c4)C(=O)N(C4CCC(=O)NC4=O)C5=O)CC3)CC2)CN(Cc2cc3c(c(C(F)(F)F)c2)CN(c2cccc(C4(Cc5nncn5C)COC4)c2)C3=O)C1 (stereo partly drawn) [Example 93, 2-(2,6-dioxopiperidin-3-yl)-5-{4-[(1-{[(3S,5S)-5-methyl-1-{[2-(3-{3-[(4-methyl-4H-1,2,4-triazol-3-yl)methyl]oxetan-3-yl}phenyl)-3-oxo-7-(trifluoromethyl)-2,3-dihydro-1H-isoindol-5-yl]methyl}piperidin-3-yl]methyl}piperidin-4-yl)methyl]piperidin-1-yl}-2,3-dihydro-1H-isoindole-1,3-dione]"
< 5,> 70,< 5,> 70,,"Cn1cnnc1C[C@]1(c2cccc(N3Cc4c(cc(CN5CCN(C[C@H]6CC[C@H](OC7CCN(c8ccc9c(c8)CC(=O)N9C8CCC(=O)NC8=O)CC7)CC6)CC5)cc4C(F)(F)F)C3=O)c2)C[C@H](C#N)C1 (stereo partly drawn) [Example 219, (1r,3r)-3-[(4-methyl-4H-1,2,4-triazol-3-yl)methyl]-3-(3-{1-oxo-6-[(4-{[(1r,4r)-4-({1-[1-(2,6-dioxopiperidin-3-yl)-2-oxo-2,3-dihydro-1H-indol-5-yl]piperidin-4-yl}oxy)cyclohexyl]methyl}piperazin-1-yl)methyl]-4-(trifluoromethyl)-2,3-dihydro-1H-isoindol-2-yl}phenyl)cyclobutane-1-carbonitrile]"
< 5,35 to 70,5 to 50,> 70,,"CC1c2nc(N3CCC(O[C@H]4CC[C@H](CN5CCN(Cc6cc7c(c(C(F)(F)F)c6)CN(c6cccc(C8(Cc9nncn9C)CCC8)c6)C7=O)CC5)CC4)CC3)ccc2C(=O)N1C1CCC(=O)NC1=O (mixture of isomers) [Example 232, rac-3-[7-methyl-5-oxo-2-(4-{[(1r,4r)-4-[(4-{[2-(3-{1-[(4-methyl-4H-1,2,4-triazol-3-yl)methyl]cyclobutyl}phenyl)-3-oxo-7-(trifluoromethyl)-2,3-dihydro-1H-isoindol-5-yl]methyl}piperazin-1-yl)methyl]cyclohexyl]oxy}piperidin-1-yl)-5H,6H,7H-pyrrolo[3,4-b]pyridin-6-yl]piperidine-2,6-dione]"
< 5,35 to 70,< 5,35 to 70,,"Cn1cnnc1CC1(c2cccc(N3Cc4c(cc(N5CC6(CCN(CC7CCN(c8ccc9c(c8Cl)CN(C8CCC(=O)NC8=O)C9=O)CC7)CC6)C5)cc4C(F)(F)F)C3=O)c2)COC1 (stereo not drawn) [Example 4, 3-{4-chloro-5-[4-({2-[2-(3-{3-[(4-methyl-4H-1,2,4-triazol-3-yl)methyl]oxetan-3-yl}phenyl)-3-oxo-7-(trifluoromethyl)-2,3-dihydro-1H-isoindol-5-yl]-2,7-diazaspiro[3.5]nonan-7-yl}methyl)piperidin-1-yl]-1-oxo-2,3-dihydro-1H-isoindol-2-yl}piperidine-2,6-dione]"
